Assay results published in patent publication US5541174A, “Analgesic method” (priority 1995, dated 1996).
Several values for one entry are separate records, joined by “and”; a condition that tells them apart may be missing. Identical values can stand only once.

Legend:
[1] = test system: acetic acid-induced writhing mouse pain model; test: Measurement of time of peak activity in the acetic acid-induced writhing mouse pain model; assay type: in vivo; conditions: for Inhibition %: 2 umol/kg p.o.
Protocol: Groups of 10 ICR male mice (Taisho Pharmaceutical Co. Research Center) were used to study each dose of every compound. […] Number of writhes were counted for each mouse during a period of 10 to 20 min after acetic acid injection. Inhibitory percent was calculated by comparison with the number of writhes in the non-treated control, vehicle-treated, and acetic acid-injected group. The ED50 value and 95% confidence limits were calculated from the inhibitory percent by the method of Litchfield and Wilcoxon.
(§1) All drugs were suspended with 5% gum arabic in saline solution or wetted with enough propylene glycol to give a final concentration of 4% propylene glycol and the wetted solid suspended in 1.4% polyvinyl alcohol in saline.

[2] = test system: adjuvant-induced arthritic pain in rats; test: Adjuvant-induced arthritic pain; assay type: in vivo, male Sprague-Dawley rats
In short: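 Male Sprague-Dawley rats (140-160 g, groups of 5-6) received intradermal tail-base 0.5 mg heat-killed Mycobacterium butyricum in paraffin oil. Vocalization was scored hourly for 5 h. ED50 with 95% limits by Litchfield-Wilcoxon.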

[3] = test system: acetic acid induced writhing in mice; test: Acetic acid-induced writhing test; assay type: in vivo, ICR male mice
[4] = test system: acetic acid-induced writhing mouse pain model; test: Comparison/potentiation of analgesic activity with morphine in the acetic acid-induced writhing mouse pain model; assay type: in vivo
Protocol: (§2) Groups of 10 ICR male mice (Taisho Pharmaceutical Co. Research Center) were used to study each dose of every compound. Ligands or complexes were administered orally or subcutaneously in 0.1 ml of vehicle per 10 g of body weight 30 minutes before the intrapertioneal injection of 0.1 ml of 0.7% acetic acid solution per 10 g of body weight. Number of writhes were counted for each mouse during a period of 10 to 20 min after acetic acid injection. Inhibitory percent was calculated by comparison with the number of writhes in the non-treated control, vehicle-treated, and acetic acid-injected group. The ED50 value and 95% confidence limits were calculated from the inhibitory percent by the method of Litchfield and Wilcoxon.

[5] = test system: acetic acid-induced writhing mouse pain model; test: Naloxone reversal of analgesia in the acetic acid-induced writhing mouse pain model; assay type: in vivo; conditions: for ED50: p.o.
Protocol: as §2, §1
NaloxoneHCL (3 umol/kg. i.v., in saline, Endo Lab.) was administered 5
min. before acetic acid injection.

[6] = oral, 5% gum arabic, 0.006 mmol/kg
[7] = oral, 5% gum arabic, 0.013 mmol/kg

## COc1ccc2c(c1)c(CC(=O)[O-])c(C)n2C(=O)c1ccc(Cl)cc1.COc1ccc2c(c1)c(CC(=O)[O-])c(C)n2C(=O)c1ccc(Cl)cc1.COc1ccc2c(c1)c(CC(=O)[O-])c(C)n2C(=O)c1ccc(Cl)cc1.COc1ccc2c(c1)c(CC(=O)[O-])c(C)n2C(=O)c1ccc(Cl)cc1.[Cu+2].[Cu+2] [Cu(II)2 (indomethacin)4]
[1]; 30 min
  Inhibition %: 54%
[1]; 60 min
  Inhibition %: 49%
[1]; 120 min
  Inhibition %: 43%
[1]; 180 min
  Inhibition %: 68%
[1]; 240 min
  Inhibition %: 33%
[1]; Table VII
  duration of analgesic effect: prolonged duration of analgesic effect
[2]; oral, 5% gum arabic in saline
  ED50: 0.007 mmol/kg
[2]; oral, 5% gum arabic, 0.003 mmol/kg
  % Inhibition: 27%
[2]; [6]
  % Inhibition: 47%
[2]; [7]
  % Inhibition: 70%
[2]; oral, PG-PVA in saline
  ED50: 0.002 mmol/kg
[2]; oral, PG-PVA, 0.001 mmol/kg
  % Inhibition: 20%
[2]; oral, PG-PVA, 0.002 mmol/kg
  % Inhibition: 40%
[2]; oral, PG-PVA, 0.003 mmol/kg
  % Inhibition: 87%
[2]; s.c., PG-PVA in saline
  ED50: 0.002 mmol/kg
[2]; s.c., PG-PVA, 0.001 mmol/kg
  % Inhibition: 17%
[2]; s.c., PG-PVA, 0.002 mmol/kg
  % Inhibition: 43%
[2]; s.c., PG-PVA, 0.003 mmol/kg
  % Inhibition: 60%
[3]; oral, 5% gum arabic in saline
  ED50: 0.012 mmol/kg
  analgesic effectiveness versus parent ligand: more effective than their parent ligands
[3]; [6]
  % Inhibition: 33%
[3]; [7]
  % Inhibition: 50%
[3]; oral, 5% gum arabic, 0.025 mmol/kg
  % Inhibition: 73%
[3]; oral, PG-PVA
  analgesic effectiveness versus parent ligand: more effective than their parent ligands
[3]; oral, PG-PVA in saline
  ED50: 0.002 mmol/kg
[3]; oral, PG-PVA, 0.001 mmol/kg
  % Inhibition: 38%
[3]; oral, PG-PVA, 0.002 mmol/kg
  % Inhibition: 53%
[3]; oral, PG-PVA, 0.004 mmol/kg
  % Inhibition: 75%
[3]; s.c., PG-PVA in saline
  ED50: 0.002 mmol/kg and 0.003 mmol/kg
[3]; s.c., PG-PVA, 0.002 mmol/kg
  % Inhibition: 34%
[3]; s.c., PG-PVA, 0.003 mmol/kg
  % Inhibition: 53%
[3]; s.c., PG-PVA, 0.006 mmol/kg
  % Inhibition: 70%
[4]; 0.5 umol/kg, orally
  % Inhibition: 21%
[4]; 1.0 umol/kg, orally
  % Inhibition: 46%
[4]; 2.0 umol/kg, orally
  % Inhibition: 54%
[4]; Table IX
  potentiation of opioid analgesia: potentiation of opioid analgesia
[4]; complex alone, orally
  ED50: 1.5 µmol/kg
[5]; 0.5 umol/kg p.o., with Naloxone HCl 3 umol/kg i.v.
  % Inhibition: 19%
[5]; 0.5 umol/kg p.o., without naloxone
  % Inhibition: 43%
[5]; 1 umol/kg p.o., with Naloxone HCl 3 umol/kg i.v.
  % Inhibition: 52%
[5]; 1 umol/kg p.o., without naloxone
  % Inhibition: 62%
[5]; 2 umol/kg p.o., with Naloxone HCl 3 umol/kg i.v.
  % Inhibition: 69%
[5]; 2 umol/kg p.o., without naloxone
  % Inhibition: 76%
[5]; Table VIII
  reduction of induced analgesia by Naloxone: reduction
[5]; with Naloxone HCl 3 umol/kg i.v.
  ED50: 1.1 µmol/kg
[5]; without naloxone
  ED50: 0.6 µmol/kg
